Experimental findings from patent US5939409A, “Processes for the production of anti-inflammatory steroids” (priority 1991, dated 1999) are described below.

The subject of experiment [1] is Sephadex induced lung edema (lung). Put plainly: Unwanted systemic effect by orally absorbed glucocorticosteroid, Sephadex induced lung edema. The experiment is classed as in vivo, Sprague Dawley rat. As to conditions: for ED50: po, read-out: ED50 (p.o. administration), lung: required glucocorticosteroid dose to reduce the edema by 50%; for ED50 / ED50 (p.o. administration), lung: required glucocorticosteroid dose to reduce the edema by 50%: rat, p.o. 2 h before Sephadex (5 mg/kg), lung lobes weighed 20 h later, relative to Sephadex control group; for dose required to inhibit lung edema (ED50) by oral administration relative to dose needed by local application to the lung (lung selectivity): ratio oral ED50 / local lung ED50, rat. How it is done:
B. Test model for unwanted systemic effect by orally absorbed glucocorticosteroid
Sprague Dawley rats (250 g) were slightly anaesthetized with Ephrane and after that the GCS test preparation in a volume of 0,5 ml/kg was given orally. Two hours later a suspension of Sephadex (5 mg/kg in a volume of 1 ml/kg) was instilled in the trachea well above the bifurcation so that the suspension reached both the left and the right lung lobes. Twenty hours later, the rats were killed and the lung lobes were weighed. Control groups got saline instead of glucocorticosteroid preparation and saline instead of Sephadex suspension to determine the weight of non-drug treated Sephadex edema and the normal weight.

Experiment [2] concerns Sephadex induced lung edema (left lung lobe). Put plainly: Local antiinflammatory activity on airway mucosa (left lung lobe), Sephadex induced lung edema, local instillation. The experiment is classed as in vivo, Sprague Dawley rat. As to conditions: rat; for ED50 (left lung administration), left lung lobe: required glucocorticosteroid dose to reduce the edema by 50% / ED50: left lung instillation 2 h before Sephadex (5 mg/kg), left lung lobe weighed 20 h later, relative to Sephadex control group; for ED50: read-out: ED50 (left lung administration), left lung lobe: required glucocorticosteroid dose to reduce the edema by 50%. How it is done:
A. Test model for desired local antiinflammatory activity on airway mucosa (left lung lobe)
Sprague Dawley rats (250 g) were slightly anaesthetized with Ephrane and the glucocorticosteroid test preparation (suspended in saline) in a volume of 0.5 ml/kg was instilled into just the left lung lobe. Two hours later a suspension of Sephadex (5 mg/kg in a volume of 1 ml/kg) was instilled under slight anaesthesia in the trachea well above the bifurcation so that the suspension reached both the left and right lung lobes. Twenty hours later the rats were killed and the left lung lobes dissected out and weighed. Control groups got saline instead of glucocorticosteroid preparation and saline instead of Sephadex suspension to determine the weight of non-drug treated Sephadex edema and the normal lung weight.

As for `CCCC1O[C@@H]2C[C@H]3[C@@H]4CCC5=CC(=O)C=C[C@]5(C)[C@H]4[C@@H](O)C[C@]3(C)[C@]2(C(=O)CO)O1` (stereo partly drawn) [Budesonide, reference compound], in experiment [1], the ED50 was determined as 4 µmol/kg; the “ED50 (p.o. administration), lung: required glucocorticosteroid dose to reduce the edema by 50%” value was 4000 nmol/kg; the “dose required to inhibit lung edema (ED50) by oral administration relative to dose needed by local application to the lung (lung selectivity)” value stood at 13 times. In experiment [2], the “ED50 (left lung administration), left lung lobe: required glucocorticosteroid dose to reduce the edema by 50%” value was 300 nmol/kg and the ED50 was determined as 0.3 µmol/kg.

Turning to `CCC[C@@H]1O[C@@H]2C[C@H]3[C@@H]4C[C@H](F)C5=CC(=O)CC[C@]5(C)[C@@]4(F)[C@@H](O)C[C@]3(C)[C@]2(C(=O)CO)O1` [Example 6, (22R)-16α,17α-butylidenedioxy-6α,9α-difluoro-11β,21-dihydroxypregn-4-ene-3,20-dione], in experiment [1] (in words, oral vs local lung ED50, rat), the “lung selectivity compared to the selected prior art compound (budesonide)” value is reported as “higher lung selectivity”. Moreover, in experiment [1], the ED50 is 0.32 µmol/kg; the “ED50 (p.o. administration), lung: required glucocorticosteroid dose to reduce the edema by 50%” value is reported as 320 nmol/kg; the “dose required to inhibit lung edema (ED50) by oral administration relative to dose needed by local application to the lung (lung selectivity)” value is listed as 32 times. The “local antiinflammatory activity compared with budesonide” value in experiment [2] (in words, left lung administration) is listed as “much higher local antiinflammatory activity than budesonide”. In addition, in experiment [2], the “ED50 (left lung administration), left lung lobe: required glucocorticosteroid dose to reduce the edema by 50%” value turned out to be 10 nmol/kg and the ED50 was 0.01 µmol/kg.
